Consider 13 compounds from patent US8293768B2, “Organic compounds” (Novartis AG, priority 2006, dated 2012).

For the compound `Cc1nc(N2CCN(CCc3c[nH]c4ccccc34)C2=O)sc1C(=O)NCc1cccnc1` [Example 32.20, 2-(3-(2-(1H-indol-3-yl)ethyl)-2-oxoimidazolidin-1-yl)-4-methyl-N-(pyridin-3-ylmethyl)thiazole-5-carboxamide], the melting point was in the range of 198 to 201 °C. Take `COC(=O)c1ccccc1CN1CCN(c2nc(C)c(C(=O)NCc3ccccc3)s2)C1=O` [Example 23.10, methyl 2-((3-(5-(benzylcarbamoyl)-4-methylthiazol-2-yl)-2-oxoimidazolidin-1-yl)methyl)benzoate]: the melting point fell in the range of 130 to 133 °C. Then `Cc1csc(NC(=O)c2ccc(CN3CCN(c4nc(C)cs4)C3=O)cc2)n1` [Example 8.10, N-(4-methylthiazol-2-yl)-4-((3-(4-methylthiazol-2-yl)-2-oxoimidazolidin-1-yl)methyl)benzamide], with 197 to 198 °C; and `Cc1cc(N2CCN(CCOc3ccccc3)C2=O)sc1C(=O)NCc1cccnc1` [Example 55, 3-methyl-5-(2-oxo-3-(2-phenoxyethyl)imidazolidin-1-yl)-N-(pyridin-3-ylmethyl)thiophene-2-carboxamide], with 78 to 80 °C.

As for `Cc1nc(N2CCN(Cc3ccc(F)cc3)C2=O)sc1C(=O)NCCN1CCCC1` [Example 8.4, 2-(3-(4-fluorobenzyl)-2-oxoimidazolidin-1-yl)-4-methyl-N-(2-(pyrrolidin-1-yl)ethyl)thiazole-5-carboxamide], the melting point was 183 to 184 °C. As for `Cc1nc(N2CCN(Cc3csc4ccc(Cl)cc34)C2=O)sc1C(=O)NCc1cccnc1` [Example 32, 2-(3-((5-chlorobenzo[b]thiophen-3-yl)methyl)-2-oxoimidazolidin-1-yl)-4-methyl-N-(pyridin-3-ylmethyl)thiazole-5-carboxamide], the figure is 185 to 187 °C; as for `CC(=O)c1sc(N2CCN(Cc3ccc(C(F)(F)F)cc3)C2=O)nc1C` [Example 5.10, 1-(5-acetyl-4-methylthiazol-2-yl)-3-(4-(trifluoromethyl)benzyl)imidazolidin-2-one], 141 to 142 °C. Then `Cc1cc(-n2cnn(Cc3ccc(S(C)(=O)=O)cc3)c2=O)sc1C(=O)NCc1cccnc1` [Example 31.4, 3-methyl-5-(1-(4-(methylsulfonyl)benzyl)-5-oxo-1H-1,2,4-triazol-4(5H)-yl)-N-(pyridin-3-ylmethyl)thiophene-2-carboxamide], with 208 to 210 °C; and `COC(=O)c1cnc(N2CCNC2=O)s1` [Example 3.1, methyl 2-(2-oxoimidazolidin-1-yl)thiazole-5-carboxylate], with 205 to 208 °C; and `Cc1nc(N2CCN(Cc3ccc(C(F)(F)F)cc3)C2=O)sc1C(=O)O` [Example 6.5, 4-methyl-2-(2-oxo-3-(4-(trifluoromethyl)benzyl)imidazolidin-1-yl)thiazole-5-carboxylic acid], with 195 to 197 °C. Regarding `Cc1nc(-n2cnn(Cc3ccc(F)cc3)c2=O)sc1C(=O)NCc1cnn(C)c1` [Example 21.10, 2-(1-(4-fluorobenzyl)-5-oxo-1H-1,2,4-triazol-4(5H)-yl)-4-methyl-N-((1-methyl-1H-pyrazol-4-yl)methyl)thiazole-5-carboxamide], the melting point fell in the range of 205 to 206 °C.

`CNC(=O)c1ccc(CN2CCN(c3nc(C)c(C(C)=O)s3)C2=O)cc1` [Example 8.6, 4-((3-(5-acetyl-4-methylthiazol-2-yl)-2-oxoimidazolidin-1-yl)methyl)-N-methylbenzamide] came in with a melting point of 173 to 175 °C.

The compound `Cc1cc(N2CCN(Cc3ccc(N)cc3)C2=O)sc1C(=O)NCc1cccnc1` [Example 58, 5-(3-(4-aminobenzyl)-2-oxoimidazolidin-1-yl)-3-methyl-N-(pyridin-3-ylmethyl)thiophene-2-carboxamide] displayed a melting point of 118 to 120 °C.
